Laboratory results from patent US20240400553A1, “AMINE BASED MATRIPTASE 2 INHIBITORS AND USES THEREOF” (Disc Medicine, Inc., priority 2023, published 2024).

target: T1, Human Recombinant Matriptase 2 (Homo sapiens, UniProt Q8IU80); experiment: Matriptase 2 inhibition, fluorescence based assay (Method I); format: biochemical; details: Table A; Ki of Matriptase-2, class symbols; read-out: Mat-2 Ki
T1 construct: made in house
T1 sequence (Q8IU80 1-811): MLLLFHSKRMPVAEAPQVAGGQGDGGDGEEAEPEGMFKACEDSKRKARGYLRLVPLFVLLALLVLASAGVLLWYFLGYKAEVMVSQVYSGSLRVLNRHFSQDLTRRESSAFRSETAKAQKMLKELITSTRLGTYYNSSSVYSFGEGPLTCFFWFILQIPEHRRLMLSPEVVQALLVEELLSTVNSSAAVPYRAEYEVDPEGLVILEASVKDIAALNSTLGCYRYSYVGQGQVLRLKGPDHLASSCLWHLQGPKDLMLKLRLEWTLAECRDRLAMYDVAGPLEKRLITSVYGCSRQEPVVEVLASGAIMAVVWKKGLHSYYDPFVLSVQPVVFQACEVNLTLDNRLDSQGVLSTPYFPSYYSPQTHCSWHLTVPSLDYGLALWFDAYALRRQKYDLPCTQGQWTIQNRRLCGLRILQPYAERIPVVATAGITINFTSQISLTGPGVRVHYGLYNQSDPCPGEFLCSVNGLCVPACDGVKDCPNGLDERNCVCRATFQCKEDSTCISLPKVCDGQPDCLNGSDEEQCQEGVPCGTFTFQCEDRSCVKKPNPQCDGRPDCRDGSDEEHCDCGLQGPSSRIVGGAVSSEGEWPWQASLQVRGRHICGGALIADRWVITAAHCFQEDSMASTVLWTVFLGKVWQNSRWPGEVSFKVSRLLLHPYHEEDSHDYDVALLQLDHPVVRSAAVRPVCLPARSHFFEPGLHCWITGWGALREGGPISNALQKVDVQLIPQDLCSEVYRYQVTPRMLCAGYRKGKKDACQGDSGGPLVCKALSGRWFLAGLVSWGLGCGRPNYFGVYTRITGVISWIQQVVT
Procedure, shortened: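 In-house recombinant enzyme (3.5 nM), preincubated 30 min with compound, then Boc-Gln-Ala-Arg-AMC substrate (62 μM) in 50 mM Tris pH 7.5, 150 mM NaCl, 0.01% gelatin, 1% DMSO, 25 °C. Fluorescence (Ex 360/Em 480 nm) read 60 min after substrate; IC50 from variable-slope sigmoidal fit of % inhibition.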

Structure (SMILES)	Ki [nM]
NCc1ccc2cc(-c3nnn[nH]3)n(Cc3cc(NS(=O)(=O)CC[C@@H]4CCCN4)cc4ccccc34)c2c1 [Compound 399, (S)—N-(4-((6-(aminomethyl)-2-(1H-tetrazol-5-yl)-1H-indol-1-yl)methyl)naphthalen-2-yl)-2-(pyrrolidin-2-yl) ethane-1-sulfonamide]	100 to 500

same assay, conditions: Table A; Ki of Matriptase-2 given as class symbols; read-out: Mat-2 Ki

Structure (SMILES)	Ki [nM]
CN(C)CCCCOC(=O)c1cc2ccc(CN)cc2n1Cc1cc(NS(=O)(=O)Cc2ccccc2)cc2ccccc12 [Compound 384, 4-(dimethylamino)butyl 6-(aminomethyl)-1-{[3-(phenylmethanesulfon-amido)naphthalen-1-yl]-methyl}-1H-indole-2-carboxylate]	100 to 500
CC(C)(C)n1cncc1COC(=O)c1cc2ccc(CN)cc2n1Cc1cc(NS(=O)(=O)Cc2ccsc2)cc2ccccc12 [Compound 385, (1-tert-butyl-1H-imid-azol-5-yl)methyl 6-(aminomethyl)-1-({3-[(thiophen-3-yl)methane-sulfonamido]naphthalen-1-yl}methyl)-1H-indole-2-carboxylate]	100 to 500
CC(C)(C)n1cncc1COC(=O)c1cc2ccc(CN)cc2n1Cc1cc(NS(=O)(=O)Cc2ccccc2)cc2ccccc12 [Compound 386, (1-tert-butyl-1H-imid-azol-5-yl)methyl 6-(aminomethyl)-1-{[3-(phenylmethanesulfon-amido)naphthalen-1-yl]-methyl}-1H-indole-2-carboxylate]	100 to 500
C[C@@H](c1ccccc1)S(=O)(=O)Nc1cc(Cn2c(C(=O)OCC3CCN(C)CC3)cc3ccc(CN)cc32)c2ccccc2c1 [Compound 387, (1-methylpiperidin-4-yl)-methyl 6-(aminomethyl)-1-({3-[(1S)-1-phenyl-ethanesulfonamido]-naphthalen-1-yl}methyl)-1H-indole-2-carboxylate]	100 to 500
COCCN1CCN(CCS(=O)(=O)Nc2cc(Cn3c(C(=O)O)cc4ccc(CN)cc43)c3ccccc3c2)CC1 [Compound 388, 6-(aminomethyl)-1-[(3-{2-[4-(2-methoxyethyl)-piperazin-1-yl]ethanesul-fonamido}naphthalen-1-yl)methyl]-1H-indole-2-carboxylic acid]	100 to 500
NCc1ccc2cc(C(=O)O)n(Cc3cc(NS(=O)(=O)CC[C@@H]4CCCN4)cc4ccccc34)c2c1 [Compound 389, 6-(aminomethyl)-1-[(3-{2-[(2S)-pyrrolidin-2-yl]ethanesulfonamido}-naphthalen-1-yl)methyl]-1H-indole-2-carboxylic acid]	100 to 500
COCCN1CCC(CS(=O)(=O)Nc2cc(Cn3c(C(=O)O)cc4ccc(CN)cc43)c3ccccc3c2)CC1 [Compound 390, 6-(aminomethyl)-1-[(3-{[1-(2-methoxyethyl)-piperidin-4-yl]methane-sulfonamido}naphthalen-1-yl)methyl]-1H-indole-2-carboxylic acid]	100 to 500
NCc1ccc2cc(C(=O)O)n(Cc3cc(NS(=O)(=O)CC4CCC(C(F)(F)F)CC4)cc4ccccc34)c2c1 (stereo not shown) [Compound 392]	500 to 3000
NCc1ccc2cc(C(=O)O)n(Cc3cc(NS(=O)(=O)N4CCC(C(F)(F)F)CC4)cc4ccccc34)c2c1 [Compound 393, 6-(aminomethyl)-1-{[3-({[4-(trifluoromethyl)-piperidin-1-yl]sulfonyl}-amino)naphthalen-1-yl]-methyl}-1H-indole-2-carboxylic acid]	500 to 3000
COCCN1CCN(C(=O)Nc2cc(Cn3c(C(=O)O)cc4ccc(CN)cc43)c3ccccc3c2)CC1 [Compound 394, 6-(aminomethyl)-1-((3-(4-(2-methoxyethyl)piperazine-1-carboxamido)naphthalen-1-yl)methyl)-1H-indole-2-carboxylic acid]	500 to 3000
CC(C)(C)S(=O)(=O)N1CCC(CNC(=O)Nc2cc(Cn3c(C(=O)O)cc4ccc(CN)cc43)c3ccccc3c2)CC1 [Compound 396, 6-(aminomethyl)-1-({3-[({[1-(2-methylpropane-2-sulfonyl)piperidin-4-yl]methyl}carbamoyl)-amino]naphthalen-1-yl}-methyl)-1H-indole-2-carboxylic acid]	100 to 500
CS(=O)(=O)N1CCC(CNC(=O)Nc2cc(Cn3c(C(=O)O)cc4ccc(CN)cc43)c3ccccc3c2)CC1 [Compound 397, 6-(aminomethyl)-1-{[3-({[(1-methanesulfonyl-piperidin-4-yl)methyl]-carbamoyl}amino)naph-thalen-1-yl]methyl}-1H-indole-2-carboxylic acid]	100 to 500
